Experimental data published in patent publication US20120059005A1, “COMBINATION OF (A) A PHOSPHOINOSITIDE 3-KINASE INHIBITOR AND (B) AN ANTIDIABETIC COMPOUND FOR USE IN THE TREATMENT OF PROLIFERATIVE DISEASES” (NOVARTIS AG, priority 2009, published 2012).
Entries after “also recorded” stand apart in the source; their conditions may differ. Like-named read-outs stand apart in the source and are kept apart here.

Key:
[1] = test system: H460 non-small cell lung tumors; experiment: H460 xenograft 12-day tumor growth inhibition assay; format: in vivo, nude mice; settings: for Mean Tumor Vol. Change / Regression / T/C: Day 12
Method: H460 human non-small cell lung cancer (NSCLC) cells are treated with, different doses of 2-Methyl-2-[4-(3-methyl-2-oxo-8-quinolln-3-yl-2,3-dihydro-imidazo[4, 5-c]quinolin-1-yl)-phenyl]-propionitrile monotosylate salt (also known as COMPOUND A) or 5,-(2,6-di-rnorpholin-4-yl-pyrimidin-4-yl)-4-trifluoromethyl-pyridin-2-ylamine hydrochloride salt (also known as COMPOUND C), a single dose of metformin or both agents in combination, The H460 human NSCLC cells (NCl-H460. ATCC-HTB-177, available from American Type Culture Collection, FRockville, Md. US) are derived from the pleural fluid of a patient with large cell cancer of the lung.
H460 tumor cells are grown in RPMI 1640 medium containing 100 units/mL penicillin G sodium, 100 μg/mL streptomycin sulfate, and 25 μg/mL gentamicin. The medium is supplemented with 10% fetal bovine serum and 2 mM glutamine. The cells are cultured in tissue culture flasks in a humidified incubator at 37° C., in an atmosphere of 5% CO2 and 95% air. The cells are harvested for injection into 9-week old female nu/nu (nude) mice (Harlan Laboratories, Indianapolis, Ind.) by detaching the monolayers with 2× trypsin and resuspending at 5×10^7 cells/mL in phosphate-buffered saline.
0.2 mL of H460 tumor cell suspension (1×10^7 cells) is injected subcutaneously in the right flank of 9-week old female nu/nu (nude) mice (Harlan Laboratories, Indianapolis, Ind.) having a body weight (BW) range of 18.1-26.9 g on Day 1 of the study. Tumors are monitored twice weekly and then daily as their mean volume approaches 100-150 mm^3. Ten days after implantation, the mice are sorted into 11 groups of eight mice having individual tumor sizes of 75-196 mm^3 and a group mean tumor size of 119-122 mm^3. Tumor volume in mm^3 is determined using the formula [(width)^2×(length)]/2, where width width of the tumor in mm and length length of the tumor in mm. Tumor weight can be estimated with the assumption that 1 mg is equivalent to 1 mm^3 of tumor volume.
The 11 groups of nude mice are treated as follows. One group of eight mice serves as Controls (C or Control) for all analyses and is administered intraperitoneally (i.p.) 50 mM sodium acetate at pH 4 (Vehicle 1) and then administered by oral gavage (p.o.) a composition comprising 10% N-methylpyrrolidone 90% polyethylene glycol 300 (PEG300) (Vehicle 2). […] Metformin is dissolved in 50 mM sodium acetate at pH 4 for dosing.
Compound A is stored at −20° C. Compound C is stored at −20° C. protected from light. Stock solutions (10×) in 100% N-rnethylpyrrolidone (NMP) are prepared every five days, aliquotted, and stored in the dark at room temperature. On each treatment day, stock solution aliquots are diluted with polyethylene glycol (PEG300) to provide the formulated drug (Compound A or Compound C) in 10% NMP: 90% PEG300. Dosing solutions are protected from light, and the formulated drug is administered within 1 hour after preparation.
For combination therapies, Compound A or Compound C are administered by oral gavage (p.o.) within 30 minutes after the intraperitoneal (i.p.) administration of metformin, except on Day 20 when Compound A or Compound C is given immediately after metformin.
Paclitaxel (Natural Pharmaceuticals, Inc., Beverly, Mass., USA) is administered by bolus tail-vein injections (i.v.) once daily on alternate days for five doses. Paclitaxel is dissolved in 50% ethanol and 50% Crernophor® EL to prepare a 10× stock solution stored at room temperature. On each day of dosing, an aliquot of the paclitaxel stock solution is diluted with 5% dextrose in water to yield a dosing solution containing 5% ethanol and 5% Cremophor® EL.
In all groups, the dosing volume of 10 mL/kg (0.2 mL/20 g mouse) is scaled to the weight of each animal as determined on the day of dosing, except on weekends when the previous BW is carried fontvard.

[2] = test system: phosphorylated and total AMPK, MAPK, EGFR, HER and S6 ribosomal protein; experiment: Western blot of phosphorylated and total signalling proteins in breast cancer cells; format: cell-based
Method: (§1) MCF-7(HER2), SK-BR-3, MDA-MB-231 and MDA-MB-468 breast cancer cells are treated with different doses of 2-Methyl-2-[4-(3-methyl-2-oxo-8-quinolin-3-yl-2, 3-dihydro-imidazo[4,5-c]quinolin-1-yl)-phenyl]-propionitrile, also known as COMPOUND A, metformin or both agents in combination. Levels of phosphorylated and total AMPK, MAPK, EGFR, HER and S6 ribosomal protein are evaluated by western blot. Cell proliferation analyses are performed in triplicates using the WST-1 and crystal violet colorimetric assays.

[3] = test system: MCF-7(HER2), SK-BR-3, MDA-MB-231 and MDA-MB-468 breast cancer cells; settings: different doses, SK-BR-3, MDA-MB-231, MDA-MB-468, triplicates
Method: as §1

[4] = Compound A 41.1 mg/kg p.o., 1x daily
[5] = Compound A 68.5 mg/kg p.o., 1x daily
[6] = Compound C 32.7 mg/kg p.o., 1x daily
[7] = Compound C 54.4 mg/kg p.o., 1x daily until day 10 (stopped due to toxicity)
[8] = Metformin 192.3 mg/kg i.p., 1x daily
[9] = breast cancer cells, listed as metformin
[10] = Paclitaxel 30 mg/kg i.v., 1x on alternate days for 5 doses

**Q.** Which “Mean Tumor Vol. Change” value [1, 4] does the source give for Cn1c(=O)n(-c2ccc(C(C)(C)C#N)cc2)c2c3cc(-c4cnc5ccccc5c4)ccc3ncc21 [Compound A, 2-Methyl-2-[4-(3-methyl-2-oxo-8-quinolin-3-yl-2,3-dihydro-imidazo[4,5-c]quinolin-1-yl)-phenyl]-propionitrile] here?
**A.** 809 mm^3

**Q.** And the Regression [1, 4]?
**A.** None

**Q.** And the T/C [1, 4]?
**A.** 54% (ns,

**Q.** What about the “Mean Tumor Vol. Change” value [1, 5] of the same compound?
**A.** 448 mm^3

**Q.** And the Regression [1, 5]?
**A.** None

**Q.** What about the T/C [1, 5] of the same compound?
**A.** 30% (ns,

**Q.** What about the “levels of p-S6 ribosomal protein” value ([2]; breast cancer cells) of the same compound?
**A.** potently decreases

**Q.** What about the p-AKT ([2]; breast cancer cells) of the same compound?
**A.** potently decreases

**Q.** What about the “p-MAPK / MAPK phosphorylation” value ([2]; breast cancer cells) of the same compound?
**A.** increases MAPK phosphorylation

**Q.** For Nc1cc(C(F)(F)F)c(-c2cc(N3CCOCC3)nc(N3CCOCC3)n2)cn1 [Compound C, 5-(2,6-di-morpholin-4-yl-pyrimidin-4-yl)-4-trifluoromethyl-pyridin-2-ylamine], which “Mean Tumor Vol. Change” value [1, 6] is on record?
**A.** 880 mm^3

**Q.** What about the Regression [1, 6] of the same compound?
**A.** None

**Q.** What about the T/C [1, 6] of the same compound?
**A.** 59% (ns,

**Q.** What about the “Mean Tumor Vol. Change” value [1, 7] of the same compound?
**A.** 110 mm^3

**Q.** And the Regression [1, 7]?
**A.** None

**Q.** And the T/C ([1]; Compound C 54.4 mg/kg p.o., 1x daily until day 10 (stopped due to toxicity), not evaluable (ne))?
**A.** 7% (ne,

**Q.** Which “cell proliferation / growth inhibition” value [3] does the source give for CN(C)C(=N)N=C(N)N [Metformin, dimethyldiguanide, reference compound] here?
**A.** dose-dependent growth inhibition

**Q.** And the “cell proliferation / growth inhibition” value ([3]; listed as metformin)?
**A.** inhbitor of HER2 negative breast cancer cell proliferation

**Q.** And the “Mean Tumor Vol. Change” value [1, 8]?
**A.** 1516 mm^3

**Q.** What about the Regression [1, 8] of the same compound?
**A.** None

**Q.** And the T/C [1, 8]?
**A.** 101% (ns,

**Q.** And the “enhancement of efficacy or tolerability in combination with COMPOUND C” value ([1]; metformin in combination with COMPOUND C, overall conclusion)?
**A.** does not appear to enhance efficacy or tolerability

**Q.** And the “impact on tumor growth in the 12-day tumor growth inhibition assay” value ([1]; metformin monotherapy at 192.3 mg/kg)?
**A.** did not appear to impact tumor growth

**Q.** And the “AMPK activation (p-AMPK)” value ([2]; breast cancer cells)?
**A.** activates AMPK

**Q.** And the “levels of p-S6 ribosomal protein” value ([2]; breast cancer cells)?
**A.** decreasing the levels of p-S6 ribosomal protein

**Q.** And the “receptor tyrosine kinase (EGFR and HER2) expression” value ([2]; breast cancer cells)?
**A.** reduced receptor tyrosine kinase (EGFR and HER2) expression

**Q.** And the “AMPK activation (p-AMPK)” value [2, 9]?
**A.** activates p-AMPK

**Q.** And the “p-MAPK / MAPK phosphorylation” value [2, 9]?
**A.** reduces p-MAPK; also recorded: decreased p-MAPK

**Q.** What about the “MARK pathway transactivation induced by COMPOUND A” value ([2]; metformin together with COMPOUND A) of the same compound?
**A.** counteracts

**Q.** How did the “Mean Tumor Vol. Change” value [1, 10] turn out when CC(=O)O[C@H]1C(=O)[C@@]2(C)[C@H]([C@H](OC(=O)c3ccccc3)[C@]3(O)C[C@H](OC(=O)[C@H](O)[C@@H](NC(=O)c4ccccc4)c4ccccc4)C(C)=C1C3(C)C)[C@]1(OC(C)=O)CO[C@@H]1C[C@@H]2O [Paclitaxel, reference compound] was run?
**A.** 227 mm^3

**Q.** And the Regression [1, 10]?
**A.** None

**Q.** What about the T/C [1, 10] of the same compound?
**A.** 15%
